The target in one test is human GLP-1 receptor (Homo sapiens, UniProt P43220). The experiment in a line: Functional GLP-1 receptor assay, in vitro potency (CRE luciferase; whole cells). It is filed as cell-based.
Test [1] relates to Mouse monocyte/macrophage cell line, RAW 264.7. In words: Cholesterol efflux assay (3H-cholesterol, macrophage cell line). The class given is cell-based. As to conditions: RAW 264.7, 4 hrs incubation, 0.1% human serum albumin; for EC50: read-out: 4 h Cholesterol Efflux EC50, ABCA1-mediated efflux (CPT-cAMP induced minus non-induced); for 4 h Cholesterol Efflux Emax: ABCA1-mediated efflux.

The mark [2] stands for this setting: GLP1R CRE luc 1% HSA EC50 Mean Value, BHK cells expressing human GLP-1 receptor, 1% HSA.
The mark [3] stands for this setting: BHK cells expressing human GLP-1 receptor, 0% HSA, read-out: GLP1R CRE luc 0% HSA EC50 Mean Value.

As usually defined, the EC50 is the concentration that produces a half-maximal response.

Like-named read-outs stand apart in the source and are kept apart here. Where a SMILES comes first, the peptide text is derived from it. [ ]: non-standard residue; d: D form. Aib = CC(C)(N)C(=O)O

Sequence of human GLP-1 receptor (P43220 24-463): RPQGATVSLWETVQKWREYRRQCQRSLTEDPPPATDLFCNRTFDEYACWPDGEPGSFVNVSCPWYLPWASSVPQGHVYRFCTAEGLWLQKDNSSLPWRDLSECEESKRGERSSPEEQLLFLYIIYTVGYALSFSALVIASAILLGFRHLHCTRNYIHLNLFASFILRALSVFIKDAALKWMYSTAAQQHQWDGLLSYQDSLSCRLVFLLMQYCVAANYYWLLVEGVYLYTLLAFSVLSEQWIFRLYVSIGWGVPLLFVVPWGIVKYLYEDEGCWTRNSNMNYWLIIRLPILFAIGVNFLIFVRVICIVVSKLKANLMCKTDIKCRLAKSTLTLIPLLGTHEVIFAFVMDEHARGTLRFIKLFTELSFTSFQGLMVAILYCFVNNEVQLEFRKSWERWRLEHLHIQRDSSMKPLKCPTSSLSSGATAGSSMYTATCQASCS

In the case of `CC[C@H](C)[C@H](NC(=O)[C@H](Cc1ccccc1)NC(=O)[C@H](CCC(=O)O)NC(=O)[C@H](CCCCN)NC(=O)[C@H](C)NC(=O)[C@H](C)NC(=O)[C@H](CCC(N)=O)NC(=O)[C@H](CCC(=O)O)NC(=O)[C@H](CCC(=O)O)NC(=O)[C@H](CC(C)C)NC(=O)[C@H](Cc1ccc(O)cc1)NC(=O)[C@H](CCCCN)NC(=O)[C@H](CO)NC(=O)[C@H](Cc1ccc(O)cc1)NC(=O)[C@H](CC(=O)O)NC(=O)[C@H](CO)NC(=O)[C@@H](NC(=O)[C@H](Cc1ccccc1)NC(=O)[C@@H](NC(=O)CNC(=O)[C@H](CCC(N)=O)NC(=O)[C@H](CO)NC(=O)[C@@H](N)Cc1c[nH]cn1)[C@@H](C)O)[C@@H](C)O)C(=O)N[C@@H](C)C(=O)N[C@@H](Cc1c[nH]c2ccccc12)C(=O)N[C@@H](CC(C)C)C(=O)N[C@@H](CC(C)C)C(=O)N[C@@H](CCC(=O)O)C(=O)N[C@@H](CCCCN)C(=O)NC(C)(C)C(=O)N[C@@H](CCCCN)C(=O)N[C@@H](CCC(=O)O)C(=O)N[C@@H](Cc1ccccc1)C(=O)N[C@@H](CC(C)C)C(N)=O` [Compound 56] (H-HSQGTFTSDYSKYLEEQAAKEFIAWLLEK[Aib]KEFL-NH2; N-terminus assumed), the EC50 on human GLP-1 receptor (GLP1R CRE luc 0% HSA EC50 Mean Value, BHK cells expressing human GLP-1 receptor, 0% HSA) amounted to 118 pM; on human GLP-1 receptor (setting [2]) it was 61 pM; in test [1] it was 210000 pM.

Consider `CC[C@H](C)[C@H](NC(=O)[C@H](Cc1ccccc1)NC(=O)[C@H](CCC(=O)O)NC(=O)[C@H](CCCCN)NC(=O)[C@@H](NC(=O)[C@H](C)NC(=O)[C@H](CCC(=O)O)NC(=O)CNC(=O)[C@H](CCC(=O)O)NC(=O)[C@H](CC(C)C)NC(=O)[C@H](Cc1ccc(O)cc1)NC(=O)[C@H](CO)NC(=O)[C@H](CO)NC(=O)[C@@H](NC(=O)[C@H](CC(=O)O)NC(=O)[C@H](CO)NC(=O)[C@@H](NC(=O)[C@H](Cc1ccccc1)NC(=O)[C@@H](NC(=O)CNC(=O)[C@H](CCC(=O)O)NC(=O)C(C)(C)NC(=O)[C@@H](N)Cc1c[nH]cn1)[C@@H](C)O)[C@@H](C)O)C(C)C)C(C)C)C(=O)N[C@@H](C)C(=O)N[C@@H](Cc1c[nH]c2ccccc12)C(=O)N[C@@H](CC(C)C)C(=O)N[C@H](C(=O)N[C@@H](CCC(=O)O)C(=O)N[C@@H](CCCCN)C(=O)NC(C)(C)C(=O)N[C@@H](CCCCN)C(=O)N[C@@H](CCC(=O)O)C(N)=O)C(C)C` [Compound 63, [Aib8,Glu23,Val25,Glu34,Lys35,Aib36,Lys37]-GLP-1-(7-37)-peptidyl-Glu amide] (H-H[Aib]EGTFTSDVSSYLEGEAVKEFIAWLVEK[Aib]KE-NH2), for which the concentration giving a half-maximal response (EC50) is 14 pM at human GLP-1 receptor (setting [3]) and 5 pM on human GLP-1 receptor (setting [2]). The “4 h Cholesterol Efflux Emax” value in test [1] is given as 135%.

For `CC(C)C[C@H](NC(=O)[C@H](Cc1ccccc1)NC(=O)[C@H](CCC(=O)O)NC(=O)[C@H](CCCCN)NC(=O)C(C)(C)NC(=O)[C@H](CCCCN)NC(=O)[C@H](CCC(=O)O)NC(=O)[C@@H](NC(=O)[C@H](CC(C)C)NC(=O)[C@H](Cc1c[nH]c2ccccc12)NC(=O)[C@H](CCC(N)=O)NC(=O)[C@@H](NC(=O)[C@H](Cc1ccccc1)NC(=O)[C@H](CCC(=O)O)NC(=O)[C@H](CCCCN)NC(=O)[C@@H](NC(=O)[C@H](C)NC(=O)[C@H](CCC(=O)O)NC(=O)CNC(=O)[C@H](CCC(=O)O)NC(=O)[C@H](CC(C)C)NC(=O)[C@H](Cc1ccc(O)cc1)NC(=O)[C@H](CO)NC(=O)[C@H](CO)NC(=O)[C@@H](NC(=O)[C@H](CC(=O)O)NC(=O)[C@H](CO)NC(=O)[C@@H](NC(=O)[C@H](Cc1ccccc1)NC(=O)[C@@H](NC(=O)CNC(=O)[C@H](CCC(=O)O)NC(=O)C(C)(C)NC(=O)[C@@H](N)Cc1c[nH]cn1)[C@@H](C)O)[C@@H](C)O)C(C)C)C(C)C)C(C)C)C(C)C)C(N)=O` [Compound 65, [Aib8,Glu23,Val25,Val29,Gln30,Glu34,Lys35,Aib36,Lys37]-GLP-1-(7-37)-peptidyl-Glu-Phe-Leu amide] (H-H[Aib]EGTFTSDVSSYLEGEAVKEFVQWLVEK[Aib]KEFL-NH2; N-terminus assumed), the response on human GLP-1 receptor (GLP1R CRE luc 1% HSA EC50 Mean Value) was half-maximal at 37 pM (EC50). In test [1], the “4 h Cholesterol Efflux Emax” value came out at 96% and the EC50 was 410000 pM.

For the compound `CC[C@H](C)[C@H](NC(=O)[C@H](Cc1ccccc1)NC(=O)[C@H](CCC(=O)O)NC(=O)[C@H](CCCCN)NC(=O)[C@@H](NC(=O)[C@H](C)NC(=O)[C@H](CCC(=O)O)NC(=O)CNC(=O)[C@H](CCC(=O)O)NC(=O)[C@H](CC(C)C)NC(=O)[C@H](Cc1ccc(O)cc1)NC(=O)[C@H](CO)NC(=O)[C@H](CO)NC(=O)[C@@H](NC(=O)[C@H](CC(=O)O)NC(=O)[C@H](CO)NC(=O)[C@@H](NC(=O)[C@H](Cc1ccccc1)NC(=O)[C@@H](NC(=O)CNC(=O)[C@H](CCC(=O)O)NC(=O)C(C)(C)NC(=O)[C@@H](N)Cc1c[nH]cn1)[C@@H](C)O)[C@@H](C)O)C(C)C)C(C)C)C(=O)N[C@@H](C)C(=O)N[C@@H](Cc1c[nH]c2ccccc12)C(=O)N[C@@H](CC(C)C)C(=O)N[C@H](C(=O)N[C@@H](CCC(=O)O)C(=O)N[C@@H](CCCCN)C(=O)NC(C)(C)C(=O)N[C@@H](CCCCN)C(=O)N[C@@H](CCC(=O)O)C(=O)N[C@@H](Cc1ccccc1)C(=O)N[C@@H](CC(C)C)C(=O)N[C@@H](CCC(=O)O)C(N)=O)C(C)C` [Compound 66, [Aib8,Glu23,Val25,Glu34,Lys35,Aib36,Lys37]-GLP-1-(7-37)-peptidyl-Glu-Phe-Leu-Glu amide], the EC50 on human GLP-1 receptor (setting [3]) was 101 pM; on human GLP-1 receptor (setting [2]) it was 39 pM. Further, the “4 h Cholesterol Efflux Emax” value in test [1] stood at 102%.

Consider `CC[C@H](C)[C@H](NC(=O)[C@H](Cc1ccccc1)NC(=O)[C@H](CCC(=O)O)NC(=O)[C@H](CCCCN)NC(=O)[C@@H](NC(=O)[C@H](C)NC(=O)[C@H](CCC(=O)O)NC(=O)CNC(=O)[C@H](CCC(=O)O)NC(=O)[C@H](CC(C)C)NC(=O)[C@H](Cc1ccc(O)cc1)NC(=O)[C@H](CO)NC(=O)[C@H](CO)NC(=O)[C@@H](NC(=O)[C@H](CC(=O)O)NC(=O)[C@H](CO)NC(=O)[C@@H](NC(=O)[C@H](Cc1ccccc1)NC(=O)[C@@H](NC(=O)CNC(=O)[C@H](CCC(=O)O)NC(=O)C(C)(C)NC(=O)[C@@H](N)Cc1c[nH]cn1)[C@@H](C)O)[C@@H](C)O)C(C)C)C(C)C)C(=O)N[C@@H](C)C(=O)N[C@@H](Cc1c[nH]c2ccccc12)C(=O)N[C@@H](CC(C)C)C(=O)N[C@H](C(=O)N[C@@H](CCC(=O)O)C(=O)N[C@@H](CCCCN)C(=O)NC(C)(C)C(=O)N[C@@H](CCCCN)C(=O)N[C@@H](CCC(=O)O)C(=O)N[C@@H](Cc1ccccc1)C(=O)N[C@@H](CC(C)C)C(=O)N[C@@H](CCC(=O)O)C(=O)N[C@@H](CCCCN)C(N)=O)C(C)C` [Compound 70, [Aib8,Glu23,Val25,Glu34,Lys35,Aib36,Lys37]-GLP-1-(7-37)-peptidyl-Glu-Phe-Leu-Glu-Lys amide], for which the EC50 on human GLP-1 receptor (setting [3]) was 157 pM. Besides, the “4 h Cholesterol Efflux Emax” value in test [1] was 91%.

`CC[C@H](C)[C@H](NC(=O)[C@H](Cc1ccccc1)NC(=O)[C@H](CCC(=O)O)NC(=O)[C@H](CCCCN)NC(=O)[C@@H](NC(=O)[C@H](C)NC(=O)[C@H](CCC(N)=O)NC(=O)CNC(=O)[C@H](CCC(=O)O)NC(=O)[C@H](CC(C)C)NC(=O)[C@H](Cc1ccc(O)cc1)NC(=O)[C@H](CO)NC(=O)[C@H](CO)NC(=O)[C@@H](NC(=O)[C@H](CC(=O)O)NC(=O)[C@H](CO)NC(=O)[C@@H](NC(=O)[C@H](Cc1ccccc1)NC(=O)[C@@H](NC(=O)CNC(=O)[C@H](CCC(=O)O)NC(=O)C(C)(C)NC(=O)[C@@H](N)Cc1c[nH]cn1)[C@@H](C)O)[C@@H](C)O)C(C)C)C(C)C)C(=O)N[C@@H](C)C(=O)N[C@@H](Cc1c[nH]c2ccccc12)C(=O)N[C@@H](CC(C)C)C(=O)N[C@H](C(=O)N[C@@H](CC(N)=O)C(=O)N[C@@H](CCCCN)C(=O)NC(C)(C)C(=O)N[C@@H](C)C(=O)N[C@@H](CCC(=O)O)C(=O)N[C@@H](Cc1ccccc1)C(=O)N[C@@H](CC(C)C)C(N)=O)C(C)C` [Compound 73] (H-H[Aib]EGTFTSDVSSYLEGQAVKEFIAWLVNK[Aib]AEFL-NH2): the EC50 at human GLP-1 receptor (setting [3]) came to 108 pM; at human GLP-1 receptor (setting [2]) it was 62 pM. For the same compound, in test [1], the “4 h Cholesterol Efflux Emax” value came out at 86%.

Take `CC[C@H](C)[C@H](NC(=O)[C@H](Cc1ccccc1)NC(=O)[C@H](CCC(=O)O)NC(=O)[C@H](CCCCN)NC(=O)[C@@H](NC(=O)[C@H](C)NC(=O)[C@H](CCC(=O)O)NC(=O)CNC(=O)[C@H](CCC(=O)O)NC(=O)[C@H](CC(C)C)NC(=O)[C@H](Cc1ccc(O)cc1)NC(=O)[C@H](CO)NC(=O)[C@H](CO)NC(=O)[C@@H](NC(=O)[C@H](CC(=O)O)NC(=O)[C@H](CO)NC(=O)[C@@H](NC(=O)[C@H](Cc1ccccc1)NC(=O)[C@@H](NC(=O)CNC(=O)[C@H](CCC(=O)O)NC(=O)C(C)(C)NC(=O)[C@@H](N)Cc1c[nH]cn1)[C@@H](C)O)[C@@H](C)O)C(C)C)C(C)C)C(=O)N[C@@H](CCC(N)=O)C(=O)N[C@@H](Cc1c[nH]c2ccccc12)C(=O)N[C@@H](CC(C)C)C(=O)N[C@@H](CC(C)C)C(=O)N[C@@H](CCC(=O)O)C(=O)N[C@@H](CCCCN)C(=O)NC(C)(C)C(=O)N[C@@H](CCCCN)C(=O)N[C@@H](CCC(=O)O)C(=O)N[C@@H](Cc1ccccc1)C(=O)N[C@@H](CC(C)C)C(N)=O` [Compound 79, [Aib8,Glu23,Val25,Gln30,Leu33,Glu34,Lys35,Aib36,Lys37]-GLP-1-(7-37)-peptidyl-Glu-Phe-Leu amide] (H-H[Aib]EGTFTSDVSSYLEGEAVKEFIQWLLEK[Aib]KEFL-NH2): the EC50 at human GLP-1 receptor (setting [2]) stood at 61 pM. For the same compound, the “4 h Cholesterol Efflux Emax” value in test [1] is 100%.
